In ChEMBL document CHEMBL4834445, “Discovery of a new class of JMJD6 inhibitors and structure-activity relationship study” (Bioorg Med Chem Lett, 2021):
Calls of active or inactive are those of the source. The calls are words filed in the database; no cut-off is given here.

How the values were obtained:
[1] = biological target: T1, Bifunctional arginine demethylase and lysyl-hydroxylase JMJD6 (Homo sapiens, UniProt Q6NYC1); experiment: Inhibition of JMJD6 (unknown origin) by Succinate-Glo assay
[2] = biological target: T1, Bifunctional arginine demethylase and lysyl-hydroxylase JMJD6; experiment: Inhibition of JMJD6 (unknown origin)
[3] = biological target: T1, Bifunctional arginine demethylase and lysyl-hydroxylase JMJD6; experiment: Inhibition of JMJD6 (unknown origin) at 100 uM by Succinate-Glo assay
[4] = biological target: T2, Lysine-specific demethylase 3B (Homo sapiens, UniProt Q7LBC6); experiment: Binding affinity to KDM3B (unknown origin) by differential scanning fluorimetry
T2 sequence (Q7LBC6 whole entry): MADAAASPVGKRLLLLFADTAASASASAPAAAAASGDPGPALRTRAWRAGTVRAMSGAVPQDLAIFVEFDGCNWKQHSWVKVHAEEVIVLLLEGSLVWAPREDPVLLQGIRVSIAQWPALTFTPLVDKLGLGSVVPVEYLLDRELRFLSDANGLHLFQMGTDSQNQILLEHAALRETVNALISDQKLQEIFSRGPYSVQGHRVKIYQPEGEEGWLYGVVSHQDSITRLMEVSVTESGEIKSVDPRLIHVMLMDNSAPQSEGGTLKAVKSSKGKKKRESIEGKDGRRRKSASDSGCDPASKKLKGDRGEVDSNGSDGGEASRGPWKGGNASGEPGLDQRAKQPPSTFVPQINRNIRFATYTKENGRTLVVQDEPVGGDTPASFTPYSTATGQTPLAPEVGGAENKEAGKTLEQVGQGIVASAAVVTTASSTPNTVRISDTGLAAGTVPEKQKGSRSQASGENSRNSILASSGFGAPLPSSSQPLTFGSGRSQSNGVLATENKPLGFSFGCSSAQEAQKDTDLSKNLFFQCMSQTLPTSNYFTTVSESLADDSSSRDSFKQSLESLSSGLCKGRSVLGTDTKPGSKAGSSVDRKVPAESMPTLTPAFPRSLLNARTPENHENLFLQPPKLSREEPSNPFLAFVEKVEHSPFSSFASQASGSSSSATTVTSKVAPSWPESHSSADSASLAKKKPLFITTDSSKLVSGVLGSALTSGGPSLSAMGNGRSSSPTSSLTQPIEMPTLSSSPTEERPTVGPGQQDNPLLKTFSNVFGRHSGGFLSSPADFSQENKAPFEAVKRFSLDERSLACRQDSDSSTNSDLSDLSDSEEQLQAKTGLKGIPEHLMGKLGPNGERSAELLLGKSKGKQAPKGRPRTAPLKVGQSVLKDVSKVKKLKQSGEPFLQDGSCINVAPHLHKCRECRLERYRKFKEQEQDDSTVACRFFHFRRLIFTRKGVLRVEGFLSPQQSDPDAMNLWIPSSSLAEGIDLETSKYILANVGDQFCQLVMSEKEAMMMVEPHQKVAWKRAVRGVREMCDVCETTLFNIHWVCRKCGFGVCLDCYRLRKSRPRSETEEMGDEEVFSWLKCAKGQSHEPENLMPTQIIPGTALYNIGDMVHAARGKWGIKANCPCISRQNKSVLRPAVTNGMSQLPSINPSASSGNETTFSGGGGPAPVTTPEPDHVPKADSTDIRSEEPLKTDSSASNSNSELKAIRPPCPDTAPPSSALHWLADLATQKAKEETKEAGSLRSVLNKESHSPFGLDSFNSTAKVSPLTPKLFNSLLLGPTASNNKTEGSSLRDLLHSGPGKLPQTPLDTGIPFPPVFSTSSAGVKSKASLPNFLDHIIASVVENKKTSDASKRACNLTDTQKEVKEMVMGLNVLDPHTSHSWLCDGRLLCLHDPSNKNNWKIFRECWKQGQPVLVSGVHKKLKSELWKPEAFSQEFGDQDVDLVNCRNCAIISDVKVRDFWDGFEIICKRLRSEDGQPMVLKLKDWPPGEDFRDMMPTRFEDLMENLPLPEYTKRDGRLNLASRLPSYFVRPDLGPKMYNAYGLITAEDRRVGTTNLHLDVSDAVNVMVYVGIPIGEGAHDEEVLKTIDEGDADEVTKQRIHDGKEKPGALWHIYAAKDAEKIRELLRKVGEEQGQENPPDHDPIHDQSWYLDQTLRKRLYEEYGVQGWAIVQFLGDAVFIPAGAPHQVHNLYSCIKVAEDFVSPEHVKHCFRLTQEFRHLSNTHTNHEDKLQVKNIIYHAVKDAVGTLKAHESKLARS

[5] = biological target: T3, Bifunctional peptidase and (3S)-lysyl hydroxylase JMJD7 (Homo sapiens, UniProt P0C870); experiment: Inhibition of JMJD7 (unknown origin) by Succinate-Glo assay
T3 sequence (P0C870 whole entry): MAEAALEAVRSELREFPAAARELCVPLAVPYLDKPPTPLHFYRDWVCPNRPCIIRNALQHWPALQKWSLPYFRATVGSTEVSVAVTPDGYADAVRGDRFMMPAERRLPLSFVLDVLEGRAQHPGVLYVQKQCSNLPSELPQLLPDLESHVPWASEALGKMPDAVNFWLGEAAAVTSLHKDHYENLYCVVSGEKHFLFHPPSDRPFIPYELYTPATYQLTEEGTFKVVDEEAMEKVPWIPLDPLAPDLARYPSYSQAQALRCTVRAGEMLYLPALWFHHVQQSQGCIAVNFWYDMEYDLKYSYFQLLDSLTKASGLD

[6] = biological target: T1, Bifunctional arginine demethylase and lysyl-hydroxylase JMJD6; experiment: Binding affinity to JMJD6 (unknown origin) assessed as thermal stability of the protein by measuring change in melting temperature by differential scanning fluorimetry
[7] = biological target: T4, Lysine-specific demethylase 5A (Homo sapiens, UniProt P29375); experiment: Inhibition of KDM5A (unknown origin) by AlphalLISA assay
T4 sequence (P29375 whole entry): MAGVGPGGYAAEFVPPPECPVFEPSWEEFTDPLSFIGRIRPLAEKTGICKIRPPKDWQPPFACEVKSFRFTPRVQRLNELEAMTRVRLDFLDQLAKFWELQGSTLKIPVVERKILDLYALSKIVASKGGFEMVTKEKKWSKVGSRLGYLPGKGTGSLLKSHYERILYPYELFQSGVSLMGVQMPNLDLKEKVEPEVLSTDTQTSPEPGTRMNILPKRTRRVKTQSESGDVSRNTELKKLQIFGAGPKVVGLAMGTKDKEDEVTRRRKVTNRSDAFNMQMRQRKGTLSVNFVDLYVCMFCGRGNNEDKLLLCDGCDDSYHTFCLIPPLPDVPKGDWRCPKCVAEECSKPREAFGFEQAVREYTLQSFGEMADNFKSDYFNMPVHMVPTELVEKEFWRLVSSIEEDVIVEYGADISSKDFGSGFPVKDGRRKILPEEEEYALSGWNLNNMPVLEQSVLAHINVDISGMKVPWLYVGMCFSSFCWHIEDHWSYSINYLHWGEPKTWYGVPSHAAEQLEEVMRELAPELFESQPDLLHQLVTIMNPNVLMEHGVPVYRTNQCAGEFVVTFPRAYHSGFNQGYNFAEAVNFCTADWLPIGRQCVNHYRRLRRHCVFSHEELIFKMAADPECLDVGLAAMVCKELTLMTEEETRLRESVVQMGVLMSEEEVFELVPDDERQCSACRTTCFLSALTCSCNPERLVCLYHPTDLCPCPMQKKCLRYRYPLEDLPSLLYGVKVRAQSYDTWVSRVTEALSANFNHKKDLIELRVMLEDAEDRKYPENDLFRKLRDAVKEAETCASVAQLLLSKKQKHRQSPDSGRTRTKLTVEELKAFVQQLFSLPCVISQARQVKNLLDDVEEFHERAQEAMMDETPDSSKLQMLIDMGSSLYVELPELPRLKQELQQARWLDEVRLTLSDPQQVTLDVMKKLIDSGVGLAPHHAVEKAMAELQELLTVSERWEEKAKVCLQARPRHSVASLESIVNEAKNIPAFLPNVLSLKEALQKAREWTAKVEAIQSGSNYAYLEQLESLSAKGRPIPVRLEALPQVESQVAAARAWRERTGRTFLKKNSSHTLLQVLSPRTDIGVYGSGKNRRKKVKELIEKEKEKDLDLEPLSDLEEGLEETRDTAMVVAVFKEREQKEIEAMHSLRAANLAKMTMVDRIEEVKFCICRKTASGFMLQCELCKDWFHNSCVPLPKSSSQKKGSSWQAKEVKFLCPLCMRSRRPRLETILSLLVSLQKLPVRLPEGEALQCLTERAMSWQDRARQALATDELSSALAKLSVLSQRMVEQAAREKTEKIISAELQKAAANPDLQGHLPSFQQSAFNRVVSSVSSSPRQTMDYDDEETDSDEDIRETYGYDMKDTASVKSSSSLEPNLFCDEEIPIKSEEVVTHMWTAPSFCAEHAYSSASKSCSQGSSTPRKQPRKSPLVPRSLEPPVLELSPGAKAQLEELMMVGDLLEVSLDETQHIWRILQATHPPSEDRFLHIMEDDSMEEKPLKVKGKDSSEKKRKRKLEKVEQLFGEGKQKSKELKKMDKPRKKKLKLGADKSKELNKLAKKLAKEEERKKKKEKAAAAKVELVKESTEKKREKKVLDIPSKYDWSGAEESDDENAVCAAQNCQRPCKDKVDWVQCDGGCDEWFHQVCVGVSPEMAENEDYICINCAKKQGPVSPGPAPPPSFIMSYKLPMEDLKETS

[8] = biological target: T5, Lysine-specific demethylase 4D (Homo sapiens) (UniProt Q6B0I6); experiment: Binding affinity to KDM4D (unknown origin) by differential scanning fluorimetry
T5 sequence (whole entry): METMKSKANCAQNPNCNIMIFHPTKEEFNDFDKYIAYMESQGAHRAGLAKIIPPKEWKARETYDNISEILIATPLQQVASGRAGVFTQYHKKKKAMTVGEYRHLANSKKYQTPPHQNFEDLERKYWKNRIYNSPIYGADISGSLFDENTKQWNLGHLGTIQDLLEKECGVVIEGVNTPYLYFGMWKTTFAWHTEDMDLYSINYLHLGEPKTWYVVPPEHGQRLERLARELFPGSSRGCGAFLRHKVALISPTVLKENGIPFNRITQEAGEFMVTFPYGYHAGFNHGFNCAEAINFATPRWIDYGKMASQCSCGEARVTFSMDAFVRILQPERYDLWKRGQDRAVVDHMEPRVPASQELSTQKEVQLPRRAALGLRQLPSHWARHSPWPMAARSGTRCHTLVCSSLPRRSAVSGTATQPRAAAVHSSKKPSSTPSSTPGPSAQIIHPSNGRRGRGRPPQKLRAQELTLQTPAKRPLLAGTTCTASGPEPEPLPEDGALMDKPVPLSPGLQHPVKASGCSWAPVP

[9] = biological target: T1, Bifunctional arginine demethylase and lysyl-hydroxylase JMJD6; experiment: Binding affinity to JMJD6 in human HeLa cells assessed as inhibition of temperature-dependent protein degradation by CETSA; format: cell-based
RNA demethylase ALKBH5 [10] = biological target: T6, RNA demethylase ALKBH5 (Homo sapiens, UniProt Q6P6C2); experiment: Inhibition of ALKBH5 (unknown origin) by Succinate-Glo assay
Target sequence in this assay (Q6P6C2 whole entry): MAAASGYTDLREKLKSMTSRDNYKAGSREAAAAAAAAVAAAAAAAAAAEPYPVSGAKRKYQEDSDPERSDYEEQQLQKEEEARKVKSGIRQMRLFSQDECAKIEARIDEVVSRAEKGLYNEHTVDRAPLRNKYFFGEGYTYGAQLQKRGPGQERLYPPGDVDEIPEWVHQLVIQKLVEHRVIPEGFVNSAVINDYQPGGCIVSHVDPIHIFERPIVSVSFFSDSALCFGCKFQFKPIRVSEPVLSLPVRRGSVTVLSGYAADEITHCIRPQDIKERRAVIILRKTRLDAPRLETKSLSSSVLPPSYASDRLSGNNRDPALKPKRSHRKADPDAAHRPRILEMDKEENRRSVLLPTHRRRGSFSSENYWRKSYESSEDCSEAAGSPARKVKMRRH

[11] = biological target: T7, Lysine-specific demethylase 4D (Homo sapiens, UniProt Q6B0I6); experiment: Inhibition of KDM4D (unknown origin) by Succinate-Glo assay
T7 sequence (Q6B0I6 whole entry): T5 sequence (whole entry)

[12] = biological target: T3, Bifunctional peptidase and (3S)-lysyl hydroxylase JMJD7; experiment: Binding affinity to JMJD7 (unknown origin) by differential scanning fluorimetry
RNA demethylase ALKBH5 [13] = biological target: T6, RNA demethylase ALKBH5; experiment: Binding affinity to ALKBH5 (unknown origin) by differential scanning fluorimetry
Target sequence in this assay (Q6P6C2 2-394 limits assumed): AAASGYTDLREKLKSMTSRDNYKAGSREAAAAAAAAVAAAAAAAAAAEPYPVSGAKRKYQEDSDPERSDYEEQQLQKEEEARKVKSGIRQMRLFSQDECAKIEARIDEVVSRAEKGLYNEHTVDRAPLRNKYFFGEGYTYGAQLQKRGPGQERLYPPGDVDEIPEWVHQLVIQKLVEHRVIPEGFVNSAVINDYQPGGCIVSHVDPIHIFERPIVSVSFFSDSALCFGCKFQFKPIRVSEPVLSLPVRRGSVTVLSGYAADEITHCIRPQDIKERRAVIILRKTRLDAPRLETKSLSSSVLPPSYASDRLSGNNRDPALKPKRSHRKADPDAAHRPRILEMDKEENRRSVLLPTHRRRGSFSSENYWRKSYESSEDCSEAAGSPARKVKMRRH

[14] = biological target: T4, Lysine-specific demethylase 5A; experiment: Binding affinity to KDM5A (unknown origin) by differential scanning fluorimetry
[15] = biological target: T2, Lysine-specific demethylase 3B; experiment: Inhibition of KDM3B (unknown origin) by Succinate-Glo assay

## Cn1ccc(-c2cc(C(N)=O)ccn2)n1
[1]
  IC50: > 100 µM

## Cc1cc(O)nc(NN=Cc2ccccc2O)n1
[2]
  IC50: 0.78 µM

## Cn1ccc(-c2cc(C(=O)OC3CCCC3)ccn2)n1
[1]
  IC50: 43.5 µM

## CCNC(=O)c1ccnc(-c2ccn(C)n2)c1
[1]
  IC50: > 100 µM

## CCOC(=O)c1cc(-c2ccn(C)n2)ncc1C(F)(F)F
[1]
  IC50: > 100 µM

## CCOC(=O)c1ccnc(-c2cc[nH]n2)c1
[1]
  IC50: 19.9 µM
  inhibition: Dose-Dependent Effect
[3]
  inhibition: 76%

## CCOC(=O)c1cccc(-c2ccn(C)n2)c1
[1]
  IC50: > 100 µM

## CCOC(=O)c1ccnc(-c2ccn(C)n2)c1
[1]
  IC50: 0.914 µM

## CCOC(=O)c1ccnc(-c2nn(C)cc2-c2ccccc2)c1
[1]
  IC50: 15.2 µM

## CCOC(=O)c1ccnc(-c2nn(C)cc2-c2ccc3occc3c2)c1
[1]
  IC50: > 100 µM

## CC(C)COC(=O)c1ccnc(-c2ccn(C)n2)c1
[1]
  IC50: 11.8 µM

## Cn1ccc(-c2cc(C(=O)O)ccn2)n1
[1]
  IC50: 1.71 µM

## Cn1ccc(-c2cc(C(=O)OCCF)ccn2)n1
[1]
  IC50: 1.45 µM

## Cn1ccc(-c2cc(C(=O)OCc3ccccc3)ccn2)n1
[1]
  IC50: 5.69 µM

## COC(=O)c1ccnc(-c2ccn(C)n2)c1
[1]
  IC50: 1.86 µM

## CCOC(=O)c1ccc(-c2ccn(C)n2)nc1
[1]
  IC50: > 100 µM

## Cn1ccc(-c2cc(C(=O)OCC(F)F)ccn2)n1
[1]
  IC50: 1.12 µM

## CCOC(=O)c1ccnc(-c2ccn(C(C)C)n2)c1
[1]
  IC50: > 100 µM

## CCOC(=O)c1ccnc(-c2ccn(CC)n2)c1
[1]
  IC50: 2.43 µM

## CCOC(=O)c1cccnc1-c1ccn(C)n1
[1]
  IC50: > 100 µM

## CCOC(=O)c1cc(C)nc(-c2ccn(C)n2)c1
[1]
  IC50: > 100 µM

## CCOC(=O)c1ccnc(-c2nn(C)cc2-c2cc3ccccc3c3ccccc23)c1
[1]
  IC50: > 100 µM

## CC(C)OC(=O)c1ccnc(-c2ccn(C)n2)c1
[1]
  IC50: 1.94 µM

## Cn1ccc(-c2cc(C(=O)OCC(F)(F)F)ccn2)n1
[4]
  Activity: inactive
[5]
  IC50: > 100 µM
[6]
  ΔTm: 1.94 °C
[7]
  IC50: > 100 µM
[8]
  Activity: inactive
[1]
  IC50: 0.681 µM
[9]
  Activity: Active
RNA demethylase ALKBH5 [10]
  IC50: > 100 µM
[11]
  IC50: > 100 µM
[12]
  Activity: inactive
RNA demethylase ALKBH5 [13]
  Activity: inactive
[14]
  Activity: inactive
[15]
  IC50: > 100 µM

## CCOC(=O)c1ccnc(-c2nn(C)cc2-c2cc(OC)cc(OC)c2)c1
[1]
  IC50: > 100 µM

## CCCOC(=O)c1ccnc(-c2ccn(C)n2)c1
[1]
  IC50: 1.34 µM

## Cn1ccc(-c2cc(-c3cnn[nH]3)ccn2)n1
[1]
  IC50: 12.9 µM

## CCOC(=O)c1ccnc(-c2ccnn2C)c1
[1]
  IC50: > 100 µM

## CCOC(=O)c1cc(-c2ccn(C)n2)ncc1F
[1]
  IC50: 23.1 µM

## Cn1ccc(-c2cc(C(=O)OCC3CCC3)ccn2)n1
[1]
  IC50: 2.53 µM

## Cn1ccc(-c2cc(C(=O)OCC3CC3)ccn2)n1
[1]
  IC50: 3.8 µM

## CCOC(=O)c1ccnc(-c2nn(C)cc2-c2ccc(OC)nc2)c1
[1]
  IC50: 24.9 µM

## CCOC(=O)c1ccnc(-c2nn(C)cc2-c2cccc(C)c2)c1
[1]
  IC50: 22.9 µM

## CCOC(=O)c1ccnc(-c2nn(C)cc2-c2cccc(N3CCOCC3)c2)c1
[1]
  IC50: 20.4 µM
